Assay results from US10611748B2, “Xanthone derivatives for the treatment of hepatitis B virus disease” (Hoffmann-La Roche Inc., priority 2017, dated 2020).

System: extracellular HBeAg level (surrogate marker for cccDNA) in HepDES19 cells
Assay: HepDES19 primary screen assay
Type: cell-based, HBV
Conditions: Hepatitis B virus, 120 h, 5 days compound incubation, HBeAg ELISA
Text: The assay was employed to primarily screen for novel cccDNA inhibitors. HepDES19 is an engineered cell line which contains a 1.1 unit length HBV genome, and pgRNA transcription from the transgene is controlled by Tetracycline (Tet). In the absence of Tet, pgRNA transcription will be induced, but HBV e antigen (HBeAg) could not be produced from this pgRNA due to the fact that the very short leader sequence before the HBeAg start codondisrupted the start codon. Only after cccDNA is formed, the missing leader sequence and start codon mutation would be restored from the 3′-terminal redundancy of pgRNA, and then HBeAg could be synthesized. Therefore, HBeAg could be used as a surrogate marker for cccDNA (Zhou, T. et al., Antiviral Res(2006), 72(2), 116-124; Guo, H. et al., J. Virol (2007), 81(22), 12472-12484).
HepDES19 cells were seeded at 2×10^6 cells per T150 flask and cultured with the culture medium (Dulbecco's Modified Eagle Medium: Nutrient Mixture F-12 (DMEM:F12, Gibco Cat. 11320-82), 10% Fetal Bovine Serum (FBS, Clontech Cat. 631101), 0.1 mM Non-Essential Amino Acids Solution (NEAA, Gibco Cat. 11140-050), 50 μg/mL Penicillin-Streptomycin (PS, Invitrogen Cat. 15140-163), 500 μg/mL Geneticin (G418, Invitrogen Cat. 10131-027) containing 3 μg/mL Tet (Sigma, Cat. 87128) for 5 days. Cells were then seeded at 4×10^6 cells per T150 in the same culture medium as described above in the absence of Tet for 8 days. Cells were then harvested and frozen at density of 2×10^6 cells per mL. For compound testing, the frozen cells were thawed and seeded into 96-well plates at a density of 6×10^4 cells per well. At 24 hrs after seeding, half log serial dilutions of compounds made with Dimethyl sulfoxide (DMSO, Sigma, Cat. D2650) were further diluted with the same culture medium as described above before they were added to the cells to reach desired final compound concentrations and 1% DMSO concentration. Plates were then incubated at 37° C. for another 5 days before measurement of HBeAg level and cell viability. Extracellular HBeAg level were measured with enzyme-linked immunosorbent assay (ELISA) kit (Shanghai Kehua Diagnostic Medical Products Co., Ltd). Cell viability was assessed using Cell Counting Kit-8 (Donjindo, Cat. CK04-20). IC50 values were derived from the dose-response curve using 4 parameter logistic curve fit method.
The compounds of the present invention were tested for their capacity to inhibit extracellular HBeAg level as described herein.

Question: With `O=c1c2ccc(N3CC[C@H](O)C3)cc2oc2c(F)cccc12` [Example 31, 5-fluoro-3-[(3S)-3-hydroxypyrrolidin-1-yl]xanthen-9-one] as the compound, how does the IC50 read?
Answer: 2.71 µM

Question: How did the IC50 turn out when `O=C1CCCN1c1ccc2c(=O)c3cccc(F)c3oc2c1` [Example 23, 1-(5-fluoro-9-oxo-xanthen-3-yl)pyrrolidin-2-one] was run?
Answer: 0.83 µM

Question: With `CC1c2ccc(N3CCC(C(=O)O)C3)cc2Oc2c(Cl)cccc21` (stereo not drawn) [Example 75, 1-(5-chloro-9-methyl-9H-xanthen-3-yl)pyrrolidine-3-carboxylic Acid] as the compound, how does the IC50 read?
Answer: 10.1 µM

Question: `O=c1c2ccc(N3CCCC3)nc2oc2c(Cl)cccc12` [Example 64, 9-chloro-2-pyrrolidin-1-yl-chromeno[2,3-b]pyridin-5-one] was tested. Which IC50 did it give?
Answer: 35 µM

Question: For `COC1(C(F)(F)F)c2ccc(N3CCCC3)cc2Oc2c(Cl)cccc21` (stereo not drawn) [Example 60, 1-[5-chloro-9-methoxy-9-(trifluoromethyl)xanthen-3-yl]pyrrolidine], which IC50 is on record?
Answer: 22.2 µM

Question: For `O=C(O)[C@@H]1CCN(c2ccc3c(=O)c4cccc(Cl)c4sc3c2)C1` [Example 73, (3R)-1-(5-chloro-9-oxo-thioxanthen-3-yl)pyrrolidine-3-carboxylic Acid], which IC50 is on record?
Answer: 2.6 µM

Question: With `O=c1c2ccc(N3CCCC3)cc2oc2c(F)ccc(Cl)c12` [Example 22, 1-chloro-4-fluoro-6-pyrrolidin-1-ylxanthen-9-one] as the compound, how does the IC50 read?
Answer: 0.74 µM

Question: For `Fc1cccc2c1Oc1cc(N3CCCC3)ccc1C21CCCO1` (stereo not drawn) [Example 52, 1-(5′-fluorospiro[tetrahydrofuran-2,9′-xanthene]-3′-yl)pyrrolidine], which IC50 is on record?
Answer: 14.5 µM

Question: How did the IC50 turn out when `CC1c2ccc(N3CCCC3)cc2Oc2c(Cl)cccc21` (stereo not drawn) [Example 54, 1-(5-chloro-9-methyl-9H-xanthen-3-yl)pyrrolidine] was run?
Answer: 1.6 µM

Question: Which IC50 does the source give for `FC(F)(F)C1c2ccc(N3CCCC3)cc2Oc2c(Cl)cccc21` (stereo not drawn) [Example 61, 1-[5-chloro-9-(trifluoromethyl)-9H-xanthen-3-yl]pyrrolidine] here?
Answer: 31 µM

Question: How did the IC50 turn out when `O=C(O)[C@@H]1CCN(c2ccc3c(=O)c4c(Cl)ccc(Cl)c4oc3c2)C1` [Example 69, (3R)-1-(5,8-dichloro-9-oxo-xanthen-3-yl)pyrrolidine-3-carboxylic Acid] was run?
Answer: 0.96 µM

Question: For `O=c1c2ccc(N3CCCCCC3)cc2oc2c(F)cccc12` [Example 13, 3-(azepan-1-yl)-5-fluoro-xanthen-9-one], which IC50 is on record?
Answer: 5.49 µM

Question: How did the IC50 turn out when `O=C(O)C1CCN(c2ccc3c(=O)c4cc(Cl)cc(Cl)c4oc3c2)C1` (stereo not drawn) [Example 70, 1-(5,7-dichloro-9-oxo-xanthen-3-yl)pyrrolidine-3-carboxylic Acid] was run?
Answer: 5.9 µM

Question: With `Clc1cccc2c1Oc1cc(N3CCCC3)ccc1C2` [Example 55, 1-(5-chloro-9H-xanthen-3-yl)pyrrolidine] as the compound, how does the IC50 read?
Answer: 1.11 µM

Question: `O=C(O)[C@H]1CN(c2ccc3c(=O)c4cccc(Cl)c4oc3c2)C[C@@H]1c1ccc(F)cc1` [Example 15, (3R,4S)-1-(5-chloro-9-oxo-xanthen-3-yl)-4-(4-fluorophenyl)pyrrolidine-3-carboxylic Acid] was tested. Which IC50 did it give?
Answer: 7.39 µM

Question: For `OC1(C(F)(F)F)c2ccc(N3CCCC3)cc2Oc2c(Cl)cccc21` (stereo not drawn) [Example 59, 5-chloro-3-pyrrolidin-1-yl-9-(trifluoromethyl)xanthen-9-ol], which IC50 is on record?
Answer: 19.2 µM

Question: With `O=c1c2ccc(N3CCCC3)cc2oc2c(F)cc(Cl)cc12` [Example 35, 2-chloro-4-fluoro-6-pyrrolidin-1-yl-xanthen-9-one] as the compound, how does the IC50 read?
Answer: 16.7 µM

Question: With `O=c1c2ccc(N3CCC(O)C3)cc2oc2c(F)cccc12` (stereo not drawn) [Example 24, 5-fluoro-3-(3-hydroxypyrrolidin-1-yl)xanthen-9-one] as the compound, how does the IC50 read?
Answer: 1.05 µM

Question: For `O=c1c2ccc(N3CC[C@@H](O)C3)cc2oc2c(F)cccc12` [Example 32, 5-fluoro-3-[(3R)-3-hydroxypyrrolidin-1-yl]xanthen-9-one], which IC50 is on record?
Answer: 2.72 µM

Question: How did the IC50 turn out when `COC(=O)C1CCN(c2ccc3c(=O)c4cccc(Cl)c4oc3c2)C1` (stereo not drawn) [Example 11, Methyl 1-(5-chloro-9-oxo-xanthen-3-yl)pyrrolidine-3-carboxylate] was run?
Answer: 1.17 µM

Question: Which IC50 does the source give for `O=c1c2ccc(N3CCOCC3)cc2oc2c(F)cccc12` [Example 29, 5-fluoro-3-morpholino-xanthen-9-one] here?
Answer: 2.13 µM

Question: How did the IC50 turn out when `O=C(O)C1CCCN(c2ccc3c(=O)c4cccc(Cl)c4oc3c2)C1` (stereo not drawn) [Example 14, 1-(5-chloro-9-oxo-xanthen-3-yl)piperidine-3-carboxylic acid] was run?
Answer: 5.79 µM

Question: For `O=C(O)C1CCN(c2ccc3c(=O)c4cc(F)cc(Cl)c4oc3c2)C1` (stereo not drawn) [Example 71, 1-(5-chloro-7-fluoro-9-oxo-xanthen-3-yl)pyrrolidine-3-carboxylic Acid], which IC50 is on record?
Answer: 13 µM

Question: For `Cc1cc2c(=O)c3cccc(Cl)c3oc2cc1N1CC[C@@H](C(=O)O)C1` [Example 74, (3R)-1-(5-chloro-2-methyl-9-oxo-xanthen-3-yl)pyrrolidine-3-carboxylic Acid], which IC50 is on record?
Answer: 2.6 µM

Question: Which IC50 does the source give for `O=c1c2cc(F)c(N3CCCC3)cc2oc2c(F)cccc12` [Example 28, 2,5-difluoro-3-pyrrolidin-1-yl-xanthen-9-one] here?
Answer: 1.86 µM

Question: For `Clc1cccc2c1Oc1c(cc(Cl)c(N3CCCC3)c1Cl)C2` [Example 56, 1-(2,4,5-trichloro-9H-xanthen-3-yl)pyrrolidine], which IC50 is on record?
Answer: 6.28 µM

Question: `O=c1c2ccc(N3CCCC3)cc2oc2c(Cl)cccc12` [Example 1, 5-chloro-3-pyrrolidin-1-yl-xanthen-9-one] was tested. Which IC50 did it give?
Answer: 0.23 µM

Question: With `COC1CCN(c2ccc3c(=O)c4cccc(F)c4oc3c2)C1` (stereo not drawn) [Example 33, 5-fluoro-3-(3-methoxypyrrolidin-1-yl)xanthen-9-one] as the compound, how does the IC50 read?
Answer: 4.06 µM

Question: How did the IC50 turn out when `CC1(C)CN(c2ccc3c(=O)c4cccc(Cl)c4oc3c2)CC1C(=O)O` (stereo not drawn) [Example 17, 1-(5-chloro-9-oxo-xanthen-3-yl)-4,4-dimethyl-pyrrolidine-3-carboxylic Acid] was run?
Answer: 12.7 µM

Question: For `CC(=O)OC(c1cccc(F)c1Cl)C1c2ccc(N3CCCC3)cc2Oc2c(Cl)cccc21` (stereo not drawn) [Example 58, [(2-chloro-3-fluoro-phenyl)-(5-chloro-3-pyrrolidin-1-yl-9H-xanthen-9-yl)methyl]acetate], which IC50 is on record?
Answer: 11.7 µM

Question: With `O=C(C1CCN(c2ccc3c(=O)c4cccc(Cl)c4oc3c2)C1)N1CCOCC1` (stereo not drawn) [Example 65, 5-chloro-3-[3-(morpholine-4-carbonyl)pyrrolidin-1-yl]xanthen-9-one] as the compound, how does the IC50 read?
Answer: 3.89 µM

Question: How did the IC50 turn out when `O=C(O)[C@H]1CN(c2ccc3c(=O)c4cccc(Cl)c4oc3c2)C[C@@H]1c1cccnc1` [Example 18, (3R,4S)-1-(5-chloro-9-oxo-xanthen-3-yl)-4-(3-pyridyl)pyrrolidine-3-carboxylic Acid] was run?
Answer: 16.6 µM

Question: How did the IC50 turn out when `O=C(O)CC1CCN(c2ccc3c(=O)c4cccc(Cl)c4oc3c2)C1` (stereo not drawn) [Example 8, 2-[1-(5-chloro-9-oxo-xanthen-3-yl)pyrrolidin-3-yl]acetic Acid] was run?
Answer: 7.53 µM

Question: How did the IC50 turn out when `O=c1c2ccc(N3CCCCC3)cc2oc2c(F)cccc12` [Example 9, 5-fluoro-3-(1-piperidyl)xanthen-9-one] was run?
Answer: 0.98 µM

Question: Which IC50 does the source give for `O=C(O)C1CCCN1c1ccc2c(=O)c3cccc(Cl)c3oc2c1` (stereo not drawn) [Example 36, 1-(5-chloro-9-oxo-xanthen-3-yl)pyrrolidine-2-carboxylic Acid] here?
Answer: 11.5 µM

Question: How did the IC50 turn out when `O=c1c2ccc(N3CCCNCC3)cc2oc2c(F)cccc12` [Example 49, 3-(1,4-diazepan-1-yl)-5-fluoro-xanthen-9-one] was run?
Answer: 7.56 µM

Question: How did the IC50 turn out when `Clc1cccc2c1Oc1cc(N3CCCC3)ccc1C2C1COC1` (stereo not drawn) [Example 57, 1-[5-chloro-9-(oxetan-3-yl)-9H-xanthen-3-yl]pyrrolidine] was run?
Answer: 7.33 µM

Question: With `O=c1c2ccc(N3CCCC3)cc2oc2c(F)cccc12` [Example 21, 5-fluoro-3-pyrrolidin-1-yl-xanthen-9-one] as the compound, how does the IC50 read?
Answer: 0.27 µM

Question: For `O=C(O)[C@H]1CCN(c2ccc3c(=O)c4cccc(Cl)c4sc3c2)C1` [Example 72, (3S)-1-(5-chloro-9-oxo-thioxanthen-3-yl)pyrrolidine-3-carboxylic Acid], which IC50 is on record?
Answer: 3.6 µM

Question: With `N[C@H]1CCN(c2ccc3c(=O)c4cccc(F)c4oc3c2)C1` [Example 50, 3-[(3S)-3-aminopyrrolidin-1-yl]-5-fluoro-xanthen-9-one] as the compound, how does the IC50 read?
Answer: 3.12 µM

Question: How did the IC50 turn out when `O=c1c2ccc(N3CCC(c4ccncc4)C3)cc2oc2c(F)cccc12` (stereo not drawn) [Example 34, 5-fluoro-3-[3-(4-pyridyl)pyrrolidin-1-yl]xanthen-9-one] was run?
Answer: 6.15 µM

Question: `O=C(O)[C@@H]1CN(c2ccc3c(=O)c4cccc(Cl)c4oc3c2)C[C@H]1c1ccc(Cl)cc1` [Example 20, (3S,4R)-1-(5-chloro-9-oxo-xanthen-3-yl)-4-(4-chlorophenyl)pyrrolidine-3-carboxylic Acid] was tested. Which IC50 did it give?
Answer: 46.6 µM
